Source: article PMC5298231, “The Malaria Parasite's Lactate Transporter PfFNT Is the Target of Antiplasmodial Compounds Identified in Whole Cell Phenotypic Screens” (PLoS Pathogens, 2017)
Where two headings read alike, the source gives them in different places.

Test system: erythrocytes infected with 3D7 trophozoites
Format: cell-based, Plasmodium falciparum

Structure (SMILES): COc1ccc2c(c1)OC(O)(C(F)(F)C(F)(F)F)CC2=O (stereo not shown) [MMV007839]
- Intracellular NADH level, treated vs untreated (6 μM): decreased
- Intracellular orotate level, treated vs untreated (6 μM): decreased
- Intracellular orotidine-5-phosphate level, treated vs untreated (6 μM): decreased
- Intracellular pyruvate level, treated vs untreated (6 μM): significant elevation
- Intracellular sn-glycerol-3-phosphate level, treated vs untreated (6 μM): significant elevation
- Increase in lactate abundance in treated relative to untreated infected erythrocytes (6 μM, at each time point (1 h, 3 h, 6 h)): 6 fold
- 1-3 (2-3)-Bisphopshateglycerate, Average (1hr): 0.8283
- 2-Hydroxyglutarate, Average (1hr): -0.2432
- 2-Ketoglutarate, Average (1hr): -0.436
- 3-Phoshoglycerate, Average (1hr): 0.004248
- 3-Phospho-serine, Average (1hr): -0.2778
- 4-Aminobutanoate, Average (1hr): 1.193
- 5-Phosphoribosyl-Pyrophosphate, Average (1hr): 0.3507
- 6-Phosphogluconate, Average (1hr): -0.04985
- ADP, Average (1hr): -0.09347
- AMP, Average (1hr): 0.1805
- ATLS, Average (1hr): 0.06136
- ATP, Average (1hr): -0.05715
- Acetyl-CoA, Average (1hr): -0.4647
- Acetyl-L-alanine, Average (1hr): 0.1907
- Adenine, Average (1hr): -0.6208
- Arginine, Average (1hr): 0.574
- Asparagine, Average (1hr): 0.04802
- Aspartate, Average (1hr): 0.001665
- CDP, Average (1hr): -0.01089
- CDP-ethanolamine, Average (1hr): 0.2765
- CMP, Average (1hr): 0.1684
- CTP, Average (1hr): -0.2804
- Cholesteryl sulfate, Average (1hr): -0.2972
- Citrate, Average (1hr): -0.1229
- CoA, Average (1hr): -0.4384
- Cyclic AMP, Average (1hr): -0.8135
- Cytidine, Average (1hr): -0.7749
- DALT, Average (1hr): -0.5028
- DEVG, Average (1hr): 0.001555
- DGLA, Average (1hr): -0.4525
- DLS, Average (1hr): -0.423
- Deoxycytidine, Average (1hr): 1.92
- Dihydroorotate, Average (1hr): -0.5278
- ESFG, Average (1hr): 0.4045
- EVGG, Average (1hr): 0.01776
- Erythrose 4-Phosphate, Average (1hr): -0.3514
- FAD, Average (1hr): -0.08791
- FMN, Average (1hr): -0.2425
- Farnesyl diphosphate, Average (1hr): -0.0002912
- Folate, Average (1hr): -0.2316
- Fructose-1-6-Bisphosphate, Average (1hr): 1.122
- Fructose-6-Phosphate, Average (1hr): 0.08818
- GDP, Average (1hr): -0.6846
- GDP-mannose, Average (1hr): 0.01571
- GMP, Average (1hr): -1.125
- GTP, Average (1hr): -0.5732
- Geranylgeranyl pyrophosphate, Average (1hr): -0.5786
- Glucono-1-4-Lactone, Average (1hr): 1.593
- Glucose-6-Phosphate, Average (1hr): -0.1863
- Glutamate, Average (1hr): 0.1005
- Glutamine, Average (1hr): 0.7703
- Glutathione Disulfide, Average (1hr): 0.1943
- Glutathione, Average (1hr): -0.1919
- Glyceraldehyde 3-Phosphate, Average (1hr): -0.7606
- Glycerone Phosphate, Average (1hr): 0.5926
- HLD, Average (1hr): -0.3486
- HVDD, Average (1hr): -0.6691
- Histidine, Average (1hr): 0.5758
- Homoserine, Average (1hr): 0.3097
- Hydroxy-L-proline, Average (1hr): 0.2443
- Hypoxanthine, Average (1hr): 0.3704
- IDP, Average (1hr): -0.1758
- IMP, Average (1hr): -0.02277
- Inosine, Average (1hr): 0.5137
- Isoleucine, Average (1hr): 0.3056
- LD, Average (1hr): 0.3825
- Lactate, Average (1hr): 2.358
- Leucine, Average (1hr): 0.1553
- Lysine, Average (1hr): 1.68
- Malate, Average (1hr): 0.1358
- Mannitol, Average (1hr): 0.0108
- Methionine, Average (1hr): 0.2615
- Myristic acid, Average (1hr): 0.2261
- N-Acetyl-glutamate, Average (1hr): -0.007377
- N-Carbamoyl-L-Aspartate, Average (1hr): -1.378
- NAD+, Average (1hr): 0.03204
- NADH, Average (1hr): -1.36
- NADP+, Average (1hr): -0.2617
- Ornithine, Average (1hr): 0.2172
- Orotate, Average (1hr): -1.216
- Orotidine 5-Phosphate, Average (1hr): -1.5
- Orotidine, Average (1hr): -0.4366
- PAEF, Average (1hr): -0.4364
- PD, Average (1hr): 0.2765
- PDAV, Average (1hr): 0.344
- PE, Average (1hr): 1.21
- PEE, Average (1hr): 0.2418
- PHF, Average (1hr): 1.069
- PPVQ, Average (1hr): 0.02129
- PVNF, Average (1hr): -0.3384
- PVQ, Average (1hr): 0.8749
- PVQA, Average (1hr): -0.7385
- Pantothenate, Average (1hr): -0.01312
- Phenylalanine, Average (1hr): 0.1979
- Phosphoenolpyruvate, Average (1hr): 0.299
- Pipecolate, Average (1hr): 0.4539
- Proline, Average (1hr): 0.1646
- Pyridoxine, Average (1hr): 0.1656
- Pyruvate, Average (1hr): 1.42
- Ribose-5-Phosphate, Average (1hr): 0.9115
- S-Adenosyl-L-homocysteine, Average (1hr): -0.1282
- SDGLA, Average (1hr): -0.148
- SFGD, Average (1hr): -0.0354
- Sedoheptulose-1/7-Phosphate, Average (1hr): 0.1578
- Serine, Average (1hr): 0.004434
- Succinate Semialdehyde, Average (1hr): -0.3802
- Succinate, Average (1hr): 0.4975
- TNVK, Average (1hr): -0.9736
- Threonine, Average (1hr): 0.4202
- Tryptophan, Average (1hr): 0.09509
- Tyrosine, Average (1hr): 0.1697
- UDP, Average (1hr): -0.1565
- UDP-N-acetyl-D-glucosamine, Average (1hr): 0.0845
- UDP-glucose, Average (1hr): -0.08513
- UMP, Average (1hr): -0.3602
- Uracil, Average (1hr): -0.4869
- Valine, Average (1hr): 0.1364
- Xanthine, Average (1hr): 0.3309
- dADP, Average (1hr): -0.3244
- dATP, Average (1hr): 0.05147
- dCDP, Average (1hr): 0.3024
- dGMP, Average (1hr): 0.08489
- dTMP, Average (1hr): -0.02247
- dTTP, Average (1hr): 0.2046
- dUMP, Average (1hr): 1.26
- myo-Inositol, Average (1hr): -0.07002
- sn-Glycerol 3-Phosphate, Average (1hr): 1.379
- sn-glycero-3-Phospho-1-inositol, Average (1hr): -0.128
- 1-3 (2-3)-Bisphopshateglycerate, Average (3hr): 0.8355
- 2-Hydroxyglutarate, Average (3hr): -0.6103
- 2-Ketoglutarate, Average (3hr): -0.8232
- 3-Phoshoglycerate, Average (3hr): 0.07426
- 3-Phospho-serine, Average (3hr): -0.4035
- 4-Aminobutanoate, Average (3hr): 0.8488
- 5-Phosphoribosyl-Pyrophosphate, Average (3hr): 0.5077
- 6-Phosphogluconate, Average (3hr): -0.2282
- ADP, Average (3hr): -0.7166
- AMP, Average (3hr): -0.5704
- ATLS, Average (3hr): -0.2347
- ATP, Average (3hr): -0.2177
- Acetyl-CoA, Average (3hr): -0.7235
- Acetyl-L-alanine, Average (3hr): -0.3599
- Adenine, Average (3hr): -0.8446
- Arginine, Average (3hr): 0.2396
- Asparagine, Average (3hr): -0.1753
- Aspartate, Average (3hr): -0.3736
- CDP, Average (3hr): -0.5752
- CDP-ethanolamine, Average (3hr): 0.02366
- CMP, Average (3hr): -0.08882
- CTP, Average (3hr): -0.3119
- Cholesteryl sulfate, Average (3hr): -0.1335
- Citrate, Average (3hr): -0.1028
- CoA, Average (3hr): -0.556
- Cyclic AMP, Average (3hr): -0.7854
- Cytidine, Average (3hr): -0.2914
- DALT, Average (3hr): -0.8981
- DEVG, Average (3hr): -0.08263
- DGLA, Average (3hr): -0.7349
- DLS, Average (3hr): -0.6175
- Deoxycytidine, Average (3hr): 1.594
- Dihydroorotate, Average (3hr): -1.064
- ESFG, Average (3hr): -0.07747
- EVGG, Average (3hr): -0.1694
- Erythrose 4-Phosphate, Average (3hr): -0.2579
- FAD, Average (3hr): -0.4239
- FMN, Average (3hr): -0.4985
- Farnesyl diphosphate, Average (3hr): -0.04123
- Folate, Average (3hr): -0.3602
- Fructose-1-6-Bisphosphate, Average (3hr): 1.146
- Fructose-6-Phosphate, Average (3hr): 0.05598
- GDP, Average (3hr): -1.202
- GDP-mannose, Average (3hr): -0.4414
- GMP, Average (3hr): -1.665
- GTP, Average (3hr): -0.7051
- Geranylgeranyl pyrophosphate, Average (3hr): -0.6827
- Glucono-1-4-Lactone, Average (3hr): 1.992
- Glucose-6-Phosphate, Average (3hr): -0.3489
- Glutamate, Average (3hr): -0.07518
- Glutamine, Average (3hr): 0.8027
- Glutathione Disulfide, Average (3hr): -0.1266
- Glutathione, Average (3hr): -0.02749
- Glyceraldehyde 3-Phosphate, Average (3hr): -0.5897
- Glycerone Phosphate, Average (3hr): 0.4029
- HLD, Average (3hr): -0.9223
- HVDD, Average (3hr): -1.392
- Histidine, Average (3hr): 0.6908
- Homoserine, Average (3hr): 0.249
- Hydroxy-L-proline, Average (3hr): 0.1081
- Hypoxanthine, Average (3hr): 0.2683
- IDP, Average (3hr): 0.1036
- IMP, Average (3hr): -0.04113
- Inosine, Average (3hr): 0.2492
- Isoleucine, Average (3hr): 0.01345
- LD, Average (3hr): 0.008648
- Lactate, Average (3hr): 2.632
- Leucine, Average (3hr): -0.1293
- Lysine, Average (3hr): 0.8307
- Malate, Average (3hr): -0.2233
- Mannitol, Average (3hr): -0.2308
- Methionine, Average (3hr): -0.1652
- Myristic acid, Average (3hr): -0.3456
- N-Acetyl-glutamate, Average (3hr): -0.8123
- N-Carbamoyl-L-Aspartate, Average (3hr): -1.502
- NAD+, Average (3hr): 0.03216
- NADH, Average (3hr): -1.72
